Experimental data from PubChem BioAssay (NCI).
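Test compounds were applied to cells in 96-well plates for 48 hours at 5 doses. TGI marks complete inhibition of growth.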

Columns and labels:
Assay in all cases: NCI-60 cell line screen, 48 h
[1] = tested on: NCI-H460 lung
[2] = tested on: K-562 leukemia
[3] = tested on: COLO 205 colon
[4] = tested on: HCT-116 colon
[5] = tested on: MDA-MB-231 breast
[6] = tested on: SK-MEL-28 melanoma
[7] = tested on: IGROV1 ovarian
[8] = tested on: SN12C renal
[9] = tested on: A549 NSCLC
[10] = tested on: HL-60(TB) leukemia
[11] = tested on: A498 renal
[12] = tested on: CCRF-CEM leukemia
[13] = tested on: SNB-75 CNS
[14] = tested on: ACHN renal
[15] = tested on: HCT-15 colon
[16] = tested on: HCC-2998 colon
[17] = tested on: 786-0 renal
[18] = tested on: UO-31 renal
[19] = tested on: SW-620 colon
[20] = tested on: OVCAR-4 ovarian
[21] = tested on: OVCAR-8 ovarian
[22] = tested on: OVCAR-5 ovarian
[23] = tested on: KM12 colon
[24] = tested on: TK-10 renal
[25] = tested on: MCF7 breast
[26] = tested on: SF-539 CNS
[27] = tested on: HT29 colon
[28] = tested on: SR leukemia
[29] = tested on: MDA-MB-435
[30] = tested on: NCI-H23 lung
[31] = tested on: UACC-62 melanoma
[32] = tested on: M14 melanoma
[33] = tested on: HS 578T breast
[34] = tested on: SK-OV-3 ovarian
[35] = tested on: UACC-257 melanoma
[36] = tested on: MDA-N
[37] = tested on: SK-MEL-5 melanoma
[38] = tested on: LOX IMVI melanoma
[39] = tested on: HOP-62 NSCLC
[40] = tested on: U251 CNS
[41] = tested on: SNB-19 CNS
[42] = tested on: T-47D breast
[43] = tested on: NCI-H226 lung
[44] = tested on: NCI/ADR-RES ovarian
[45] = tested on: DU-145 prostate
[46] = tested on: SF-268 CNS
[47] = tested on: CAKI-1 renal
[48] = tested on: MOLT-4 leukemia
[49] = tested on: EKVX NSCLC
[50] = tested on: PC-3 prostate
[51] = tested on: RPMI-8226 leukemia
[52] = tested on: MALME-3M melanoma
[53] = tested on: SK-MEL-2 melanoma
[54] = tested on: OVCAR-3 ovarian
[55] = tested on: RXF 393 renal
[56] = tested on: BT-549 breast
[57] = tested on: HOP-92 NSCLC
[58] = tested on: NCI-H522 lung
[59] = tested on: SF-295 CNS

Q: With `O=C(CC(C(=O)c1cccs1)c1cccs1)c1ccsc1` (configuration not stated) as the compound, how does the TGI [1] read?
A: > 100 µM

Q: What about the TGI [2] of the same compound?
A: > 100 µM

Q: What about the TGI [3] of the same compound?
A: > 100 µM

Q: What about the TGI [4] of the same compound?
A: > 100 µM

Q: And the TGI [5]?
A: > 100 µM

Q: And the TGI [6]?
A: > 100 µM

Q: What about the TGI [7] of the same compound?
A: > 100 µM

Q: And the TGI [8]?
A: > 100 µM

Q: And the TGI [9]?
A: > 100 µM

Q: What about the TGI [10] of the same compound?
A: 95 µM

Q: What about the TGI [11] of the same compound?
A: > 100 µM

Q: What about the TGI [12] of the same compound?
A: > 100 µM

Q: What about the TGI [13] of the same compound?
A: > 100 µM

Q: What about the TGI [14] of the same compound?
A: > 100 µM

Q: And the TGI [15]?
A: > 100 µM

Q: And the TGI [16]?
A: > 100 µM

Q: What about the TGI [17] of the same compound?
A: > 100 µM

Q: What about the TGI [18] of the same compound?
A: > 100 µM

Q: And the TGI [19]?
A: > 100 µM

Q: And the TGI [20]?
A: > 100 µM

Q: What about the TGI [21] of the same compound?
A: > 100 µM

Q: What about the TGI [22] of the same compound?
A: > 100 µM

Q: What about the TGI [23] of the same compound?
A: > 100 µM

Q: What about the TGI [24] of the same compound?
A: > 100 µM

Q: And the TGI [25]?
A: > 100 µM

Q: And the TGI [26]?
A: > 100 µM

Q: What about the TGI [27] of the same compound?
A: > 100 µM

Q: And the TGI [28]?
A: > 100 µM

Q: What about the TGI [29] of the same compound?
A: 43.1 µM

Q: What about the TGI [30] of the same compound?
A: > 100 µM

Q: And the TGI [31]?
A: > 100 µM

Q: What about the TGI [32] of the same compound?
A: > 100 µM

Q: And the TGI [33]?
A: > 100 µM

Q: And the TGI [34]?
A: > 100 µM

Q: What about the TGI [35] of the same compound?
A: > 100 µM

Q: What about the TGI [36] of the same compound?
A: 46.4 µM

Q: And the TGI [37]?
A: > 100 µM

Q: And the TGI [38]?
A: > 100 µM

Q: What about the TGI [39] of the same compound?
A: > 100 µM

Q: What about the TGI [40] of the same compound?
A: > 100 µM

Q: What about the TGI [41] of the same compound?
A: > 100 µM

Q: What about the TGI [42] of the same compound?
A: > 100 µM

Q: And the TGI [43]?
A: > 100 µM

Q: And the TGI [44]?
A: > 100 µM

Q: And the TGI [45]?
A: > 100 µM

Q: What about the TGI [46] of the same compound?
A: > 100 µM

Q: What about the TGI [47] of the same compound?
A: > 100 µM

Q: And the TGI [48]?
A: > 100 µM

Q: And the TGI [49]?
A: > 100 µM

Q: And the TGI [50]?
A: > 100 µM

Q: What about the TGI [51] of the same compound?
A: > 100 µM

Q: What about the TGI [52] of the same compound?
A: > 100 µM

Q: And the TGI [53]?
A: > 100 µM

Q: How did the TGI [1] turn out when `Clc1ccc(OCc2nnc(CCCCCCCCc3nnc(COc4ccc(Cl)cc4Cl)n3Nc3ccccc3)n2Nc2ccccc2)c(Cl)c1` was run?
A: 21.1 µM

Q: And the TGI [54]?
A: 25.4 µM

Q: And the TGI [3]?
A: 3.38 µM

Q: And the TGI [4]?
A: 25.1 µM

Q: And the TGI [55]?
A: 40.8 µM

Q: And the TGI [5]?
A: 24.4 µM

Q: And the TGI [6]?
A: 19 µM

Q: And the TGI [7]?
A: 47.7 µM

Q: And the TGI [8]?
A: 38.1 µM

Q: And the TGI [9]?
A: 64.4 µM

Q: And the TGI [11]?
A: 55.6 µM

Q: What about the TGI [13] of the same compound?
A: 70.3 µM

Q: And the TGI [14]?
A: 46.1 µM

Q: What about the TGI [15] of the same compound?
A: 35 µM

Q: What about the TGI [56] of the same compound?
A: 49.7 µM

Q: What about the TGI [16] of the same compound?
A: 20.8 µM

Q: What about the TGI [17] of the same compound?
A: 31.2 µM

Q: And the TGI [18]?
A: 40 µM

Q: What about the TGI [19] of the same compound?
A: > 62.6 µM

Q: What about the TGI [20] of the same compound?
A: 59.5 µM

Q: And the TGI [21]?
A: 50.3 µM

Q: What about the TGI [22] of the same compound?
A: 43.9 µM

Q: What about the TGI [23] of the same compound?
A: 25.6 µM

Q: What about the TGI [24] of the same compound?
A: > 75.1 µM

Q: What about the TGI [57] of the same compound?
A: 46.3 µM

Q: And the TGI [25]?
A: 45.6 µM

Q: What about the TGI [26] of the same compound?
A: 33.5 µM

Q: What about the TGI [27] of the same compound?
A: 35.8 µM

Q: What about the TGI [29] of the same compound?
A: 19.5 µM

Q: What about the TGI [30] of the same compound?
A: 51 µM

Q: What about the TGI [31] of the same compound?
A: 15.7 µM

Q: And the TGI [32]?
A: 29.2 µM

Q: What about the TGI [33] of the same compound?
A: 31.4 µM

Q: What about the TGI [34] of the same compound?
A: 39.8 µM

Q: What about the TGI [35] of the same compound?
A: 36.2 µM

Q: And the TGI [36]?
A: 27.7 µM

Q: And the TGI [37]?
A: 7.05 µM

Q: And the TGI [38]?
A: 34.3 µM

Q: What about the TGI [39] of the same compound?
A: 18.2 µM

Q: What about the TGI [40] of the same compound?
A: 27.1 µM

Q: And the TGI [41]?
A: > 61.9 µM

Q: And the TGI [42]?
A: > 100 µM

Q: And the TGI [43]?
A: 38 µM

Q: What about the TGI [44] of the same compound?
A: 51.8 µM

Q: And the TGI [45]?
A: > 62.7 µM

Q: And the TGI [46]?
A: 32.1 µM

Q: And the TGI [47]?
A: 49.3 µM

Q: And the TGI [48]?
A: > 100 µM

Q: What about the TGI [58] of the same compound?
A: 24.7 µM

Q: And the TGI [49]?
A: > 68.3 µM

Q: And the TGI [50]?
A: 34.8 µM

Q: What about the TGI [51] of the same compound?
A: 16.9 µM

Q: What about the TGI [59] of the same compound?
A: 17.3 µM

Q: What about the TGI [52] of the same compound?
A: 40.6 µM

Q: And the TGI [53]?
A: 24.8 µM

Q: How did the TGI [1] turn out when `C1CCCCC2(CCCCCCCCC3(CCC1)OCCO3)OCCO2` was run?
A: > 100 µM

Q: And the TGI [54]?
A: > 100 µM

Q: And the TGI [2]?
A: > 100 µM

Q: What about the TGI [3] of the same compound?
A: > 100 µM

Q: And the TGI [4]?
A: > 100 µM

Q: What about the TGI [55] of the same compound?
A: > 100 µM

Q: What about the TGI [6] of the same compound?
A: > 100 µM

Q: And the TGI [7]?
A: > 100 µM

Q: What about the TGI [8] of the same compound?
A: > 100 µM

Q: What about the TGI [9] of the same compound?
A: > 100 µM

Q: And the TGI [10]?
A: > 100 µM

Q: What about the TGI [11] of the same compound?
A: > 100 µM

Q: And the TGI [13]?
A: > 100 µM

Q: And the TGI [14]?
A: > 100 µM

Q: What about the TGI [15] of the same compound?
A: > 100 µM

Q: And the TGI [16]?
A: > 100 µM

Q: What about the TGI [17] of the same compound?
A: > 100 µM

Q: And the TGI [18]?
A: 3.64 µM

Q: What about the TGI [19] of the same compound?
A: > 100 µM

Q: What about the TGI [20] of the same compound?
A: > 100 µM

Q: And the TGI [21]?
A: > 100 µM

Q: And the TGI [22]?
A: > 100 µM

Q: What about the TGI [23] of the same compound?
A: > 100 µM

Q: What about the TGI [24] of the same compound?
A: > 100 µM

Q: What about the TGI [57] of the same compound?
A: > 100 µM

Q: What about the TGI [25] of the same compound?
A: > 100 µM

Q: What about the TGI [26] of the same compound?
A: > 100 µM

Q: What about the TGI [27] of the same compound?
A: > 100 µM

Q: And the TGI [28]?
A: > 100 µM

Q: What about the TGI [29] of the same compound?
A: > 100 µM

Q: What about the TGI [30] of the same compound?
A: > 100 µM

Q: What about the TGI [31] of the same compound?
A: > 100 µM

Q: What about the TGI [32] of the same compound?
A: > 100 µM

Q: And the TGI [33]?
A: > 100 µM

Q: What about the TGI [34] of the same compound?
A: > 100 µM

Q: What about the TGI [35] of the same compound?
A: > 100 µM

Q: And the TGI [36]?
A: > 100 µM

Q: What about the TGI [37] of the same compound?
A: > 100 µM

Q: What about the TGI [38] of the same compound?
A: > 100 µM

Q: And the TGI [39]?
A: > 100 µM

Q: And the TGI [40]?
A: > 100 µM

Q: What about the TGI [41] of the same compound?
A: > 100 µM

Q: What about the TGI [42] of the same compound?
A: > 100 µM

Q: What about the TGI [43] of the same compound?
A: > 100 µM

Q: What about the TGI [44] of the same compound?
A: > 100 µM

Q: What about the TGI [45] of the same compound?
A: > 100 µM

Q: What about the TGI [46] of the same compound?
A: > 100 µM

Q: And the TGI [47]?
A: > 100 µM

Q: And the TGI [58]?
A: > 100 µM

Q: And the TGI [49]?
A: > 100 µM

Q: What about the TGI [50] of the same compound?
A: > 100 µM

Q: What about the TGI [59] of the same compound?
A: > 100 µM

Q: And the TGI [52]?
A: > 100 µM

Q: What about the TGI [53] of the same compound?
A: > 100 µM
